Data as given in patent publication US20240016924A1, “NEW ADJUVANT TO IMPROVE THE INNATE IMMUNITY” (INSTITUT NATIONAL DE LA SANTÉ ET DE LA RECHERCHE MÉDICALE, priority 2020, published 2024).

Tests used:
primary HNECs = experiment: Signaling inhibitors on P1-induced TSLP expression; assay type: cell-based, human
Protocol: The expression of short and long form TSLP was quantified as described (Bjerkan, Schreurs et al. 2015, Dong, Hu et al. 2016). Briefly, total RNA was extracted using Trizol. Five hundred nanograms of RNA were treated with ezDNase Enzyme (Thermo Fisher) to remove genomic DNA, and reverse transcribed into cDNA using the kit SuperScript IV VILO Master Mix according to manufacturer instructions (Thermo Fisher). Quantitative PCR was performed using reported primers (Dong, Hu et al. 2016) and the PowerUp SYBR Green Master Mix according to manufacturer instructions (Thermo Fisher). Reactions were performed in triplicates, with glyceraldehyde-3-phosphate dehydrogenase (GAPDH) as the internal control. Amplification, data acquisition, and analysis were carried out using the LightCycler 480 Software (Roche, Mannheim, Germany). The levels of TSLP mRNA were normalized to the levels of GAPDH using the ΔCt method (Schmittgen and Livak 2008) and were presented as 2-ΔCt values.
Signaling inhibitors Confluent HNEC cells in 24-well plate were pre-incubated with inhibitors for 1 h at 37° C. prior to P1 treatment. Inhibitors, namely dexamethasone (Dex) a NF-kB and MAPK inhibitor (used at 100 nM), and Cyclosporin A (CsA) a Calcineurin Inhibitor (used at 1.5 μM), were from Invivogen and used at the manufacturer's recommended concentrations. […]

nasal RPMI cells [1] = experiment: Calcium measurement (Fura-2/AM), nasal RPMI cells; assay type: cell-based, human; settings: P1 125 μM vs 2511M, controls at 125 μM, n=3
Protocol: (§1) 70-80% confluent RPMI 2650 or HNEC cells in 24-well plate were loaded with […] Fura-2/AM (Molecular Probes) in basal medium without serum/growth factors for 1 hour at 37° C. Cells were washed twice with mammalian saline (Conche, Boulla et al. 2009) and measurements were performed in complete medium supplied with HEPS (10 mM) and CaCl2 (2 mM) as described add (Conche, Boulla et al. 2009). Images were acquired with an inverted fluorescence microscope (Observer Z1, Zeiss, Germany) and analyzed with MetaMorph software (Guichard, Bonilla et al. 2017) Calcium was measured every 5 seconds by video fluorescence imaging. Results were expressed as 340 nm to 380 nm fluorescence ratio and normalized to the baseline, i.e. ratio at time zero was set as 1.

autologous CD4+ T cells = experiment: DC-T co-cultures, CD4+ T cell proliferation (CFSE); assay type: cell-based, human; settings: peptide-primed eduDCs, 125 μM, 5 days, DC/T 1:5
Protocol: Autologous CD4+ T cells were purified from PMBCs by negative selection according to manufacturer instructions (StemCell Technologies, France) (purity>95%)
DCs and confluent ECs were co-cultured overnight as described above, and DC-EC or eduDC was further incubated with P1 (clade B, 125 μM) or medium for 24 h. Then, DCs were separated and incubated with autologous CD4+ T cells pre-labeled with CFSE (Thermo Fisher) according to the manufacturer's instructions, at a ratio of 1:5 (DC/T). After 5 days of culture, CD4+ T cell proliferation was analyzed by flow cytometry as described (Yeh, Yeh et al. 2013, Qin, Yin et al. 2015) using Phytohaemagglutinin (PHA) (5 μg/mL) as positive control.

primary HNEC cells = experiment: Calcium measurement (Fura-2/AM), primary HNEC cells; assay type: cell-based, human; settings: P1 125 μM vs 2511M, controls at 125 μM, n=3
Protocol: as §1

RPMI 2650 cells = experiment: TSLP secretion in nasal RPMI 2650 cell culture supernatants (ELISA); assay type: cell-based, human
Protocol: Nasal RPMI 2650 cells (isolated from the human nasal septum, squamous cell carcinoma, ATCC) were grown in MEMα (Minimum Essential Medium α, Thermo Fisher) supplemented with 10% fetal calf serum (FCS, Eurobio, Courtaboeuf, France) and 1% penicillin/streptomycin.
(§2) TSLP, IL-25/IL-17E, IL-33, IFN-γ, IL-10, IL-12/23p40, IL-4, IL-5, IL-6, IL-13, TNF-α, MMP-9, IL-8/CXCL8, […], MDC/CCL22, TARC/CCL17, APRIL and BAFF were measured in culture supernatants from indicated experiments with custom multiplex Luminex assays (Bio-techne) according to the manufacturer's instructions. Additionally, when indicated TSLP was measured in culture supernatants by enzyme-linked immunosorbent assay (ELISA) with a limit of detection of 8 pg/ml (Thermo Fisher) according to the manufacturer's instructions.
We first investigate whether P1 induced TSLP secretion in nasal epithelium. Therefore, we cultured human nasal epithelial cells (RPMI 2650) with P1 Glade B for 2-24 hours at 37° C. and analyzed the culture supernatants for TSLP secretion.

nasal RPMI cells [2] = experiment: Cytokines and chemokines quantification (Luminex), nasal RPMI cells; assay type: cell-based, human; settings: 125 μM, 24 hrs
Protocol: as §2
We next investigated whether, in addition to TSLP, P1 could stimulate epithelial secretion of additional immune factors prone to attract antigen presenting cells (APCs). […] Together with TSLP (Zhou, Xu et al. 2018), this set of immune factors could facilitate recruitment of APCs to the mucosal surface for initiation of an immune response, since CCL20 and CCL2 chemo-attract macrophages and immature dendritic cells (DCs), and MMP-9 degrades the extracellular matrix and facilitates the migration of immune cells in or out the epithelium. Treg cells have IgA-inducing functions and require RA, TGF-b1, IL-10, and TSLP from intestinal epithelial cells and DCs. So, we assumed IL-10 released from either EC or DC may contribute to IgA class switching (Gutzeit, Magri, et al. 2014).

[3] = intranasal immunization, gp140 antigen; Van Roey, Arias et al. 2012; cited from earlier work
[4] = tested on: CD8-depleted PBMCs cocultured with RPMI 2650 cells; experiment: In vitro immunization assay with ovalbumin; assay type: cell-based, human; settings: OVA alone 10 μg/mL, no adjuvant
Protocol: In vitro immunization assay was performed as reported (Jung, Matsumoto et al. 2007) with modifications. Briefly, 1×10^6 CD8-depleted PBMCs (Human CD8 Depletion Cocktail, StemCell Technologies, France) were cocultured for 24 hrs with RPMI 2650 cells ([…]) pre-seeded in 48 well plates for 48 hrs. Then, ovalbumin (OVA, EndoFit Ovalbumin, 10 µg/mL, Invivogen) alone, OVA together with P1 (5 μM, 25 μM, 125 μM), OVA together with P1 mutant (P1mut, 125 μM), or medium were added to in RPMI 1640 medium supplemented with Non-Essential Amino Acids (NEAA solution, Thermo Fisher), IL-4 ([…]), IL-2 (10 UI/mL) and 2-mercaptoethanol (20 μM) for 7 days.
For the detection of OVA-specific B cells, at indicated time of culture, PMBCs were surface stained with ovalbumin conjugated to fluorescein (OVA-FITC, 20 ug/mL, Thermo), PE-conjugated mouse anti-human CD20 (BD Biosciences, CA, USA), APC-conjugated goat anti-human IgA or donkey anti-human IgG (Jackson ImmunoResearch, PA, USA) as indicated by the manufacturer. Specific labeling was quantified by flow cytometry with a Guava EasyCyte flow cytometer (Merck-Millipore), and analyzed with the dedicated InCyte software, using the following strategy: CD20+ B cells were first gated and cell double positive for OVA-FITC+ and APC-conjugated anti-IgA or anti-IgG were determined as OVA-IgA or IgG-specific B-cell s.
In vitro immunization assays have been used to produce specific monoclonal antibodies using a defined antigen complemented with an adjuvant (Borrebaeck, Danielsson et al. 1987). Here, we establish a mucosal immunization model adapted from (Jung, Matsumoto et al. 2007, Yeh, Yeh et al. 2013, Wijkhuisen, Savatier et al. 2016) and using mucosal DCs based on our results presented above. OVA was selected as the model antigen. Therefore, human CD8-depleted PBMCs (n=5 independent donors) were cocultured with RPMI 2650 cells for one day to educate DCs, and prior to addition of either medium, OVA, OVA plus P1 mutant (P1mut, 125 μM) or OVA plus P1 (5 μM, 25 μM, 125 μM) for seven more days. OVA-specific B cells were quantified by flow cytometry using FITC-conjugated OVA and anti-CD2O-PE to gate on OVA-specific B cells. The Ig isotype of surface B cell receptor (BCR) was next characterized by APC-conjugated anti-human-IgA or anti-human-IgG. […] Similar results were obtained when B cells were stained with anti-CD19-PE.

## CC(C)CC(=O)N1CCN(C(=O)CCCCCN)CC1 [ENMD-1068]
Primary HNECs; 1 h pre-treatment before P1, CsA 1.5 μM, ENMD-1068 500 μg/mL, n=3
  reduction of P1-induced TSLP expression: 46±24%
Primary HNECs; inhibitor pre-treatment before P1
  P1-induced up-regulation of miR-4485-3p: blocked the up-regulation of miR-4485-3p

## SQTQQEKNEQELLALDSWKNLWNWFSITNWLWYIK [P1 Glade C]
Nasal RPMI cells [1]
  extracellular calcium influx (340/380 nm ratio): fails to raise the calcium level significantly
Autologous CD4+ T cells
  proliferation of autologous CD4+ T cells: has no effect
Primary HNEC cells
  extracellular calcium influx (340/380 nm ratio): fails to raise the calcium level significantly
RPMI 2650 cells; RPMI nasal cells, 4 hours
  Induction of TSLP secretion by P1 variants: failed to induce TSLP secretion
Nasal RPMI cells [2]
  secretion of MMP-9, CCL20, CCL2 and IL-10: unable to stimulate significant MMP-9, CCL-20 CCL2 or IL-10 production

## SQIQQKKNEQDLLALDKWANLWNWFDISNWLWYIR (Synthetic P1 clade A) [P1 Glade A]
RPMI 2650 cells; 125 uM, p<0.05, n=5
  Reduction of TSLP secretion compared to clade B P1: 20%
RPMI 2650 cells; peptide at 125 uM, 4 hours, n=5
  Secretion of TSLP: 41.8 ± 2.6 pg/mL

## Thymic stromal lymphopoietin [TSLP]
[3]
  humoral response as mucosal adjuvant: induced a strong humoral response both in serum and at genital level

B1: ovalbumin (protein, UniProt P01012 2-386, looked up)
Ovalbumin: GSIGAASMEFCFDVFKELKVHHANENIFYCPIAIMSALAMVYLGAKDSTRTQINKVVRFDKLPGFGDSIEAQCGTSVNVHSSLRDILNQITKPNDVYSFSLASRLYAEERYPILPEYLQCVKELYRGGLEPINFQTAADQARELINSWVESQTNGIIRNVLQPSSVDSQTAMVLVNAIVFKGLWEKAFKDEDTQAMPFRVTEQESKPVQMMYQIGLFRVASMASEKMKILELPFASGTMSMLVLLPDEVSGLEQLESIINFEKLTEWTSSNVMEERKIKVYLPRMKMEEKYNLTSVLMAMGITDVFSSSANLSGISSAESLKISQAVHAAHAEINEAGREVVGSAEAGVDAASVSEEFRADHPFLFCIKHIATNAVLFFGRCVSP
notes: model antigen, EndoFit Ovalbumin, Invivogen
[4]
  induction of OVA-specific B cells: failed to induce OVA-specific specific B cells
